Results taken from patent publication US20020192821A1, “Increased functional activity and/or expression of ABC transporters protects against the loss of dopamine neurons associated with Parkinson's disease” (Active Pass Pharmaceuticals, Inc., priority 2001, published 2002).

Assays:
ABCG4 transporter = molecular target: T1, ABCG4 transporter (Homo sapiens, UniProt Q9H172); assay: Dopamine-induced cytotoxicity (MTT assay) in hDAT cells transiently transfected with ABCG4, in the presence of ABC transporter inhibitors; type: cell-based; details: hDAT-SK-N-MC cells transfected with ABCG4, DA 50 μM for 24 hours, glipizide 250 μM or probenecid 500 μM added two hours prior to DA, FIG. 2
T1 construct: expressed in transfected cells; host or cells: hDAT-SK-N-MC (human neuroblastoma SK-N-MC stably expressing hDAT), transient transfection, pCEP4 or pcDNA3.1

ABCC5 transporter = ABCC5 transporter (Homo sapiens, UniProt O15440); details: hDAT-SK-N-MC cells transfected with ABCC5; DA 50 μM for 24 hours; glipizide 250 μM or probenecid 500 μM added two hours prior to DA; MTT; FIG. 2
ABCC5 transporter, sequence (O15440 whole entry): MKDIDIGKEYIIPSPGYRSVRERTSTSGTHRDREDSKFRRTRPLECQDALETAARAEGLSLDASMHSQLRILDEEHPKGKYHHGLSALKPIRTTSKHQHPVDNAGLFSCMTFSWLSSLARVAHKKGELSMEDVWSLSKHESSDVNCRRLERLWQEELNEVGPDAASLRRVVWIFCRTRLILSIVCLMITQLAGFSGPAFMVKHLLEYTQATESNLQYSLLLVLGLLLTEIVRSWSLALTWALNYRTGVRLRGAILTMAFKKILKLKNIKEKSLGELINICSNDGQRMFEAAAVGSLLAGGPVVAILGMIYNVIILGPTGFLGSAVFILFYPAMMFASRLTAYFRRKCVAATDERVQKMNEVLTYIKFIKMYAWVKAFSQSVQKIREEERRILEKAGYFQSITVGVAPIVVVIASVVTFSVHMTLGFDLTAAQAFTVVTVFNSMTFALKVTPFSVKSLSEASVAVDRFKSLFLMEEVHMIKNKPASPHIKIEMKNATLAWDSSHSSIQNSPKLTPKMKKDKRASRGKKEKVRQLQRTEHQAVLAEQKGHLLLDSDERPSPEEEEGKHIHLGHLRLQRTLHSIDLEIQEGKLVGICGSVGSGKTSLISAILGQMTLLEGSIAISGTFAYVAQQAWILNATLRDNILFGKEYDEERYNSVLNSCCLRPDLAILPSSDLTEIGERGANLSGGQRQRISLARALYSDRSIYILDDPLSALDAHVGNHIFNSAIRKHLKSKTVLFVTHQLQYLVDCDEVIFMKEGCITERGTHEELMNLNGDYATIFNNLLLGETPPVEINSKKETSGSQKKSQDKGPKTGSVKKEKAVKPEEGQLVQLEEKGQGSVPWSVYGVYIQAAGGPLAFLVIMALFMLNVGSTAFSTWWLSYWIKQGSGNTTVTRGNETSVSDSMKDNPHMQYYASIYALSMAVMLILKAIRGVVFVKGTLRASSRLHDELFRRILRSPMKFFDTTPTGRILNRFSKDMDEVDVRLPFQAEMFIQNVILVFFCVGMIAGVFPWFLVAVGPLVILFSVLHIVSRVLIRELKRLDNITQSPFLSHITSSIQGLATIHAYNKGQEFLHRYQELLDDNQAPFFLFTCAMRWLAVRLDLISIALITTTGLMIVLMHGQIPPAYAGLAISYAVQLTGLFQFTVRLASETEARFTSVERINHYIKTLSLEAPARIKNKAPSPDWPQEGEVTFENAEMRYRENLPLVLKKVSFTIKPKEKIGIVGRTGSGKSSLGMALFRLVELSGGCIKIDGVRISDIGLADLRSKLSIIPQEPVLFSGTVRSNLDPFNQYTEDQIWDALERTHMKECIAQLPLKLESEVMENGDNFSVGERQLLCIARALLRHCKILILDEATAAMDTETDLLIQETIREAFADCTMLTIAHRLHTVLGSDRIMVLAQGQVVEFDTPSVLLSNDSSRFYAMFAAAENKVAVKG

T1 sequence (Q9H172 whole entry): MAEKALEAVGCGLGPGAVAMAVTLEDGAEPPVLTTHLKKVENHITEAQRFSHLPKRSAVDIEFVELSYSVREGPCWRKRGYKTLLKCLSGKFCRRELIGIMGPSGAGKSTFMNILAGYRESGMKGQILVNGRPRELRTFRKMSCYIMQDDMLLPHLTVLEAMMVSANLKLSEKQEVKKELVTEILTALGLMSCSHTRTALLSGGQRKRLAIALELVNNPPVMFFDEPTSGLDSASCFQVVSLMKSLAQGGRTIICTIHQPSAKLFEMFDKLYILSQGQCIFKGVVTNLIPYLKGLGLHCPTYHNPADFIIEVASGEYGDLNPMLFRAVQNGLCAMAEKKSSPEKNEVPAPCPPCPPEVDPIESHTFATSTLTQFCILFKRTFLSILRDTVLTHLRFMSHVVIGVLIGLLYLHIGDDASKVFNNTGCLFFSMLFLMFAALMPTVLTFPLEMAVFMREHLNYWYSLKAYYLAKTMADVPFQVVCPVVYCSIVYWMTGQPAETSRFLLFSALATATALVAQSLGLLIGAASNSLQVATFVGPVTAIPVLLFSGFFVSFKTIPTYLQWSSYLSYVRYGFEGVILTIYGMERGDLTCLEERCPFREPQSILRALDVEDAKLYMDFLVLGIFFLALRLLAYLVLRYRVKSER

Structure (SMILES): CCCN(CCC)S(=O)(=O)c1ccc(C(=O)O)cc1 [probenecid]
- effect on the protective effect of ABCG4 against dopamine-induced toxicity (ABCG4 transporter): reversed the protective effect
- effect on the protective effect of ABCC5 against dopamine-induced toxicity (ABCC5 transporter): reversed the protective effect
